Source: patent US11053204B2, “Pyrimidinyloxy benzene derivatives as herbicides” (FMC Corporation, priority 2015, dated 2021)

Columns and labels:
Assay type in all cases: in vivo
[1] = test system: giant foxtail (Setaria faberii); assay: Test A preemergence, visual injury rating; settings: Setaria faberi, pre-emergence, 240 h, 0 to 100 scale (0 no effect, 100 complete control), read-out: Foxtail, Giant plant response rating
Procedure, shortened: (§1)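 Compounds in non-phytotoxic solvent with surfactant applied as soil spray preemergence, or postemergence to plants 2-10 cm at one- to two-leaf stage, in loam/sand. After approximately 10 days in greenhouse, injury rated visually versus untreated controls, 0 (no effect) to 100 (complete control).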

[2] = test system: ragweed (common ragweed, Ambrosia elatior); assay: Test A preemergence, visual injury rating; settings: Ambrosia artemisiifolia, pre-emergence, 240 h, 0 to 100 scale (0 no effect, 100 complete control), read-out: Ragweed plant response rating
Procedure, shortened: as §1

[3] = test system: Italian ryegrass (Lolium multiflorum); assay: Test A preemergence, visual injury rating; settings: Lolium multiflorum, pre-emergence, 240 h, 0 to 100 scale (0 no effect, 100 complete control), read-out: Ryegrass, Italian plant response rating
Procedure, shortened: as §1

[4] = test system: barnyardgrass (Echinochloa crus-galli); assay: Test A preemergence, visual injury rating; settings: Echinochloa crus-galli, pre-emergence, 240 h, 0 to 100 scale (0 no effect, 100 complete control), read-out: Barnyardgrass plant response rating
Procedure, shortened: as §1

[5] = test system: kochia (Kochia scoparia); assay: Test A preemergence, visual injury rating; settings: Bassia scoparia, pre-emergence, 240 h, 0 to 100 scale (0 no effect, 100 complete control), read-out: Kochia plant response rating
Procedure, shortened: as §1

[6] = test system: pigweed (Amaranthus retroflexus); assay: Test A preemergence, visual injury rating; settings: Amaranthus retroflexus, pre-emergence, 240 h, 0 to 100 scale (0 no effect, 100 complete control), read-out: Pigweed plant response rating
Procedure, shortened: as §1

[7] = test system: blackgrass (Alopecurus myosuroides); assay: Test C postemergence, plant response rating; settings: Alopecurus myosuroides, post-emergence
Procedure, shortened: (§2)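 Visual injury score, 0 = no effect, 100 = complete control, assigned against untreated controls after 13 to 15 d in the greenhouse. Compounds were applied in a surfactant-containing non-phytotoxic solvent mix, preemergence to seeded loam/sand or silt loam soil, or postemergence to 1- to 4-leaf plants (2 to 18 cm).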

[8] = test system: morningglory (Ipomoea coccinea); assay: Test C postemergence, plant response rating; settings: Ipomoea, post-emergence
Procedure, shortened: as §2

[9] = test system: corn (Zea mays); assay: Test C postemergence, plant response rating; settings: Zea mays, post-emergence
Procedure, shortened: as §2

[10] = test system: wheat (winter wheat, Triticum aestivum); assay: Test C postemergence, plant response rating; settings: Triticum aestivum, post-emergence
Procedure, shortened: as §2

[11] = test system: crabgrass, large (large crabgrass, Digitaria sanguinalis); assay: Test C postemergence, plant response rating; settings: Digitaria sanguinalis, post-emergence
Procedure, shortened: as §2

[12] = test system: nutsedge, yellow (yellow nutsedge, Cyperus esculentus); assay: Test C postemergence, plant response rating; settings: Cyperus, post-emergence
Procedure, shortened: as §2

[13] = test system: oilseed rape (Brassica napus); assay: Test C postemergence, plant response rating; settings: Brassica napus, post-emergence
Procedure, shortened: as §2

[14] = test system: barnyardgrass (Echinochloa crus-galli); assay: Test C postemergence, plant response rating; settings: Echinochloa crus-galli, post-emergence
Procedure, shortened: as §2

[15] = test system: kochia (Kochia scoparia); assay: Test C postemergence, plant response rating; settings: Bassia scoparia, post-emergence
Procedure, shortened: as §2

[16] = test system: galium (catchweed bedstraw, Galium aparine); assay: Test C postemergence, plant response rating; settings: Galium, post-emergence
Procedure, shortened: as §2

[17] = 62 g ai/ha, scale 0 to 100 (0 no effect, 100 complete control)
[18] = 125 g ai/ha, scale 0 to 100 (0 no effect, 100 complete control)

N#Cc1cccc(Oc2ncc(Cl)cn2)c1CCCCC(F)(F)F [Compound 73, 3-[(5-chloro-2-pyrimidinyl)oxy]-2-(5,5,5-trifluoropentyl)benzonitrile] gave a pest or weed control at 125 g/ha ([1]; 125 g ai/ha) of 100%, a pest or weed control at 500 g/ha ([1]; 500 g ai/ha) of 100% and a pest or weed control at 125 g/ha ([2]; 125 g ai/ha) of 10%. The pest or weed control at 500 g/ha ([2]; 500 g ai/ha) was 50%, the pest or weed control at 125 g/ha ([3]; 125 g ai/ha) was 50% and the pest or weed control at 500 g/ha ([3]; 500 g ai/ha) was 90%. The pest or weed control at 125 g/ha ([4]; 125 g ai/ha) was 100%, the pest or weed control at 500 g/ha ([4]; 500 g ai/ha) was 100% and the pest or weed control at 125 g/ha ([5]; 125 g ai/ha) was 100%. For the same compound, the pest or weed control at 500 g/ha ([5]; 500 g ai/ha) was 100%, the pest or weed control at 125 g/ha ([6]; 125 g ai/ha) was 100% and the pest or weed control at 500 g/ha ([6]; 500 g ai/ha) was 100%. It also gave a pest or weed control at 16 g/ha ([7]; 16 g ai/ha, scale 0 to 100) of 10%, a pest or weed control at 31 g/ha ([7]; 31 g ai/ha, scale 0 to 100) of 5% and a pest or weed control at 62 g/ha [7, 17] of 40%. The pest or weed control at 125 g/ha [7, 18] was 35%, the pest or weed control at 16 g/ha ([8]; 16 g ai/ha, scale 0 to 100) was 70% and the pest or weed control at 31 g/ha ([8]; 31 g ai/ha, scale 0 to 100) was 75%. It also gave a pest or weed control at 62 g/ha [8, 17] of 85%, a pest or weed control at 125 g/ha [8, 18] of 75% and a Corn plant response rating (crop injury, 0 = no effect, 100 = complete kill) at 16 g/ha ([9]; 16 g ai/ha, scale 0 to 100) of 10%. The Corn plant response rating (crop injury, 0 = no effect, 100 = complete kill) at 31 g/ha ([9]; 31 g ai/ha, scale 0 to 100) was 20%, the plant injury at 62 g/ha [9, 17] was 15% and the plant injury at 125 g/ha [9, 18] was 15%. The plant injury at 16 g/ha ([10]; 16 g ai/ha, scale 0 to 100) was 0%, the plant injury at 31 g/ha ([10]; 31 g ai/ha, scale 0 to 100) was 5% and the plant injury at 62 g/ha ([10]; 62 g ai/ha, scale 0 to 100 (0 no effect, 100 complete control), read-out: Wheat plant response rating) was 5%. For the same compound, the plant injury at 125 g/ha [10, 18] was 5%, the pest or weed control at 16 g/ha ([11]; 16 g ai/ha, scale 0 to 100) was 15% and the pest or weed control at 31 g/ha ([11]; 31 g ai/ha, scale 0 to 100) was 10%. For the same compound, the pest or weed control at 62 g/ha [11, 17] was 25%, the pest or weed control at 125 g/ha [11, 18] was 60% and the pest or weed control at 16 g/ha ([12]; 16 g ai/ha, scale 0 to 100) was 5%. For the same compound, the pest or weed control at 31 g/ha ([12]; 31 g ai/ha, scale 0 to 100) was 15%, the pest or weed control at 62 g/ha [12, 17] was 20% and the pest or weed control at 125 g/ha [12, 18] was 30%. It also gave a plant injury at 16 g/ha ([13]; 16 g ai/ha, scale 0 to 100) of 5%, a plant injury at 31 g/ha ([13]; 31 g ai/ha, scale 0 to 100) of 80% and a plant injury at 62 g/ha [13, 17] of 98%. For the same compound, the plant injury at 125 g/ha [13, 18] was 50%, the pest or weed control at 16 g/ha ([14]; 16 g ai/ha, scale 0 to 100) was 10% and the pest or weed control at 31 g/ha ([14]; 31 g ai/ha, scale 0 to 100) was 15%. The pest or weed control at 62 g/ha [14, 17] was 20%, the pest or weed control at 125 g/ha [14, 18] was 30% and the pest or weed control at 16 g/ha ([15]; 16 g ai/ha, scale 0 to 100) was 98%. The pest or weed control at 31 g/ha ([15]; 31 g ai/ha, scale 0 to 100) was 100%, the pest or weed control at 62 g/ha [15, 17] was 100% and the pest or weed control at 125 g/ha [15, 18] was 100%. It also gave a pest or weed control at 16 g/ha ([16]; 16 g ai/ha, scale 0 to 100) of 70%, a pest or weed control at 31 g/ha ([16]; 31 g ai/ha, scale 0 to 100) of 70% and a pest or weed control at 62 g/ha [16, 17] of 75%. For the same compound, the pest or weed control at 125 g/ha [16, 18] was 98%.
